Source: ChEMBL document CHEMBL1201862, “PubChem BioAssay data set” (2004)
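In this assay, cells in 96-well plates receive the compound at five concentrations for 48 hours. Endpoints are linearly interpolated between the surrounding concentrations. The concentration for 50% growth inhibition is given as GI50.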 Activity calls are given as the source filed them. Rule as the data show it: active = GI50 up to about 1.1 µM and inactive = higher.

What was measured:
Assay in all cases: growth of human tumour cells (NCI), 48 h
OVCAR-8 = tested on: OVCAR-8
PC-3 = tested on: PC-3
NCI-H226 = tested on: NCI-H226
UACC-62 = tested on: UACC-62
A549 = tested on: A549
NCI/ADR-RES = tested on: NCI/ADR-RES
MCF7 = tested on: MCF7
OVCAR-4 = tested on: OVCAR-4
Malme-3M = tested on: Malme-3M
NCI-H23 = tested on: NCI-H23
UACC-257 = tested on: UACC-257
ACHN = tested on: ACHN
HCT-15 = tested on: HCT-15
TK-10 = tested on: TK-10
SF-295 = tested on: SF-295
SNB-75 = tested on: SNB-75
UO-31 = tested on: UO-31
KM12 = tested on: KM12
SW-620 = tested on: SW-620
MDA-N = tested on: MDA-N

Structure (SMILES) | GI50 (OVCAR-8) | GI50 (PC-3) | GI50 (NCI-H226) | GI50 (UACC-62) | GI50 (A549) | GI50 (NCI/ADR-RES) | GI50 (MCF7) | GI50 (OVCAR-4) | GI50 (Malme-3M) | GI50 (NCI-H23) | GI50 (UACC-257) | GI50 (ACHN) | GI50 (HCT-15) | GI50 (TK-10) | GI50 (SF-295) | GI50 (SNB-75) | GI50 (UO-31) | GI50 (KM12) | GI50 (SW-620) | GI50 (MDA-N)
N#Cc1ccccc1OCCOc1ccccc1C#N | > 100 µM (inactive) | > 100 µM (inactive) | > 100 µM (inactive) | > 100 µM (inactive) | > 100 µM (inactive) | > 100 µM (inactive) | > 100 µM (inactive) | > 100 µM (inactive) | > 100 µM (inactive) | > 100 µM (inactive) | > 100 µM (inactive) | > 100 µM (inactive) | > 100 µM | > 100 µM (inactive) | > 100 µM (inactive) | 61.9 µM (inactive) | > 100 µM (inactive) | > 100 µM (inactive) | > 100 µM (inactive) | –
COC1=CCC2=C(CCN(C(=O)C3CC3)C2Cc2ccc(OC)c(O)c2)C1 (configuration not stated) | 34 µM (inactive) | 35.6 µM (inactive) | 89.3 µM (inactive) | 48.8 µM (inactive) | 63.4 µM (inactive) | 19 µM (inactive) | 33.2 µM (inactive) | 42.5 µM (inactive) | 88.9 µM (inactive) | 26.7 µM (inactive) | 47.9 µM (inactive) | > 100 µM (inactive) | 22.1 µM | 67.1 µM (inactive) | 57.8 µM (inactive) | 14.9 µM (inactive) | > 100 µM (inactive) | 37.2 µM (inactive) | 29 µM (inactive) | –
CCCNCCCCC(NC(C)=O)C(=O)NCc1ccccc1 (configuration not stated) | > 100 µM (inactive) | – | > 100 µM (inactive) | > 100 µM (inactive) | > 100 µM (inactive) | – | – | > 100 µM (inactive) | > 100 µM (inactive) | > 100 µM (inactive) | > 100 µM (inactive) | > 100 µM (inactive) | > 100 µM | > 100 µM (inactive) | > 100 µM (inactive) | 25.2 µM (inactive) | > 100 µM (inactive) | > 100 µM (inactive) | > 100 µM (inactive) | –
O=[N+]([O-])c1cccc(/C=N/C23CC4CC(CC(C4)C2)C3)c1 | > 100 µM (inactive) | – | > 100 µM (inactive) | > 100 µM (inactive) | > 100 µM (inactive) | – | – | > 100 µM (inactive) | > 100 µM (inactive) | > 100 µM (inactive) | > 100 µM (inactive) | > 100 µM (inactive) | > 100 µM | > 100 µM (inactive) | > 100 µM (inactive) | > 100 µM (inactive) | > 100 µM (inactive) | > 100 µM (inactive) | 57.1 µM (inactive) | –
O=C(CC1(O)C(=O)Nc2c(Cl)ccc(Cl)c21)c1ccc(Cl)cc1 (configuration not stated) | 18.9 µM (inactive) | – | 38.5 µM (inactive) | 23.1 µM (inactive) | 45.5 µM (inactive) | – | – | 25.7 µM (inactive) | 28.8 µM (inactive) | 21.6 µM (inactive) | 29.9 µM (inactive) | 20.8 µM (inactive) | 31.4 µM | > 100 µM (inactive) | 34.5 µM (inactive) | 26.6 µM (inactive) | 34.4 µM (inactive) | 28.4 µM (inactive) | 55.5 µM (inactive) | –
Cc1nc2ccccc2[s+]c1-c1cnc(NC#N)nc1C(=O)Nc1cccc(Cl)c1 | > 100 µM (inactive) | – | > 100 µM (inactive) | > 100 µM (inactive) | > 100 µM (inactive) | – | – | > 100 µM (inactive) | > 100 µM (inactive) | > 100 µM (inactive) | > 100 µM (inactive) | > 100 µM (inactive) | > 100 µM | > 100 µM (inactive) | > 100 µM (inactive) | > 100 µM (inactive) | > 100 µM (inactive) | > 100 µM (inactive) | > 100 µM (inactive) | –
Clc1ccc(-c2ccc(-c3nnc(CCc4nnc(-c5ccc(-c6ccc(Cl)cc6)o5)o4)o3)o2)cc1 | > 91 µM (inactive) | > 100 µM (inactive) | > 61.7 µM (inactive) | > 100 µM (inactive) | > 100 µM (inactive) | > 100 µM (inactive) | > 61.4 µM (inactive) | > 100 µM (inactive) | – | > 60.5 µM (inactive) | > 100 µM (inactive) | > 55.6 µM (inactive) | > 100 µM | 40.9 µM (inactive) | 31.5 µM (inactive) | – | > 100 µM (inactive) | > 100 µM (inactive) | > 95.7 µM (inactive) | > 100 µM (inactive)
CC(=O)c1c(-c2ccc(Cl)cc2)c(C#N)c(=S)n(C2OC(CO)C(O)C(O)C2O)c1C (configuration not stated) | > 100 µM (inactive) | 31.5 µM (inactive) | 58.3 µM (inactive) | 22.3 µM (inactive) | 71 µM (inactive) | > 100 µM (inactive) | – | 38.5 µM (inactive) | 67 µM (inactive) | 45.4 µM (inactive) | 82.4 µM (inactive) | 42.3 µM (inactive) | 82 µM | 70.6 µM (inactive) | 54.6 µM (inactive) | > 100 µM (inactive) | 1.44 µM (inactive) | 40.4 µM (inactive) | – | 30.8 µM (inactive)
Cc1cc2c(c(=O)n1C)SCC2 | > 100 µM (inactive) | > 100 µM (inactive) | > 100 µM (inactive) | > 100 µM (inactive) | > 100 µM (inactive) | > 100 µM (inactive) | – | > 100 µM (inactive) | > 100 µM (inactive) | > 100 µM (inactive) | > 100 µM (inactive) | > 100 µM (inactive) | > 100 µM | > 100 µM (inactive) | > 100 µM (inactive) | > 100 µM (inactive) | > 100 µM (inactive) | > 100 µM (inactive) | > 100 µM (inactive) | > 100 µM (inactive)
C=C(C(=C)P(=S)(C(C)C)C(C)C)P(=S)(C(C)C)C(C)C | > 100 µM (inactive) | – | > 100 µM (inactive) | > 100 µM (inactive) | > 100 µM (inactive) | – | – | > 100 µM (inactive) | > 100 µM (inactive) | > 100 µM (inactive) | > 100 µM (inactive) | > 100 µM (inactive) | > 100 µM | > 100 µM (inactive) | > 100 µM (inactive) | > 100 µM (inactive) | > 100 µM (inactive) | > 100 µM (inactive) | > 100 µM (inactive) | –
CC1=NN(c2nc(N)nc(CO)n2)C(C)(C)C1 | > 100 µM (inactive) | > 100 µM (inactive) | > 100 µM (inactive) | > 100 µM (inactive) | > 100 µM (inactive) | > 100 µM (inactive) | > 100 µM (inactive) | > 100 µM (inactive) | – | > 100 µM (inactive) | > 100 µM (inactive) | > 100 µM (inactive) | > 100 µM | > 100 µM (inactive) | > 100 µM (inactive) | > 100 µM (inactive) | > 100 µM (inactive) | > 100 µM (inactive) | > 100 µM (inactive) | –
CO[C@H]1SC[C@H](OC(C)=O)[C@H](OC(C)=O)[C@H]1OC(C)=O | > 100 µM (inactive) | – | > 100 µM (inactive) | 93.8 µM (inactive) | > 100 µM (inactive) | > 100 µM (inactive) | > 100 µM (inactive) | > 100 µM (inactive) | > 100 µM (inactive) | > 100 µM (inactive) | > 100 µM (inactive) | > 100 µM (inactive) | > 100 µM | > 100 µM (inactive) | > 100 µM (inactive) | – | > 100 µM (inactive) | > 100 µM (inactive) | > 100 µM (inactive) | > 100 µM (inactive)
N#Cc1c(N)nc(S)c(C#N)c1-c1ccccc1 | > 100 µM (inactive) | > 100 µM (inactive) | > 100 µM (inactive) | > 100 µM (inactive) | > 100 µM (inactive) | – | > 100 µM (inactive) | – | > 100 µM (inactive) | > 100 µM (inactive) | > 100 µM (inactive) | > 100 µM (inactive) | > 100 µM | > 100 µM (inactive) | > 100 µM (inactive) | 58.3 µM (inactive) | 52.8 µM (inactive) | > 100 µM (inactive) | > 100 µM (inactive) | > 100 µM (inactive)
O=C(/C=C/c1ccc(Cl)cc1)c1ccncc1 | > 100 µM (inactive) | – | > 100 µM (inactive) | 76 µM (inactive) | 58.5 µM (inactive) | – | – | 22.5 µM (inactive) | > 100 µM (inactive) | > 100 µM (inactive) | 43.5 µM (inactive) | 35.9 µM (inactive) | 44.5 µM | 33.4 µM (inactive) | 47.1 µM (inactive) | 22.1 µM (inactive) | 40.3 µM (inactive) | 26 µM (inactive) | 78 µM (inactive) | –
CC(=O)c1cccc(Nc2nc3ccc(Cl)cc3c3[nH]c4ccccc4c23)c1 | 5.12 µM (inactive) | 5.86 µM (inactive) | – | 2.19 µM (inactive) | 2.24 µM (inactive) | 4.38 µM (inactive) | 0.434 µM (active) | – | 4.95 µM (inactive) | 12.8 µM (inactive) | 13.4 µM (inactive) | 4.11 µM (inactive) | 6.08 µM | 4.81 µM (inactive) | 2.45 µM (inactive) | – | 6.07 µM (inactive) | 4.94 µM (inactive) | 4.35 µM (inactive) | 7.74 µM (inactive)
CN(C)c1ccc(/C=c2/c3ccccc3n3c2cc(NC(=O)NCCC[N+](C)(C)C)[n+]3C)cc1 | 38.9 µM (inactive) | > 100 µM (inactive) | – | > 100 µM (inactive) | > 100 µM (inactive) | > 100 µM (inactive) | 46.6 µM (inactive) | 22.2 µM (inactive) | > 100 µM (inactive) | > 100 µM (inactive) | > 100 µM (inactive) | > 100 µM (inactive) | > 100 µM | > 100 µM (inactive) | 53.7 µM (inactive) | – | > 100 µM (inactive) | > 100 µM (inactive) | > 100 µM (inactive) | –
